This note sets out measurements from ChEMBL document CHEMBL5150023, “The Pursuit of Enzyme Activation: A Snapshot of the Gold Rush” (J Med Chem, 2022).

In experiment [1] the target is T1, NAD-dependent protein deacetylase sirtuin-1 (Homo sapiens) (UniProt Q96EB6).
T1 sequence (whole entry): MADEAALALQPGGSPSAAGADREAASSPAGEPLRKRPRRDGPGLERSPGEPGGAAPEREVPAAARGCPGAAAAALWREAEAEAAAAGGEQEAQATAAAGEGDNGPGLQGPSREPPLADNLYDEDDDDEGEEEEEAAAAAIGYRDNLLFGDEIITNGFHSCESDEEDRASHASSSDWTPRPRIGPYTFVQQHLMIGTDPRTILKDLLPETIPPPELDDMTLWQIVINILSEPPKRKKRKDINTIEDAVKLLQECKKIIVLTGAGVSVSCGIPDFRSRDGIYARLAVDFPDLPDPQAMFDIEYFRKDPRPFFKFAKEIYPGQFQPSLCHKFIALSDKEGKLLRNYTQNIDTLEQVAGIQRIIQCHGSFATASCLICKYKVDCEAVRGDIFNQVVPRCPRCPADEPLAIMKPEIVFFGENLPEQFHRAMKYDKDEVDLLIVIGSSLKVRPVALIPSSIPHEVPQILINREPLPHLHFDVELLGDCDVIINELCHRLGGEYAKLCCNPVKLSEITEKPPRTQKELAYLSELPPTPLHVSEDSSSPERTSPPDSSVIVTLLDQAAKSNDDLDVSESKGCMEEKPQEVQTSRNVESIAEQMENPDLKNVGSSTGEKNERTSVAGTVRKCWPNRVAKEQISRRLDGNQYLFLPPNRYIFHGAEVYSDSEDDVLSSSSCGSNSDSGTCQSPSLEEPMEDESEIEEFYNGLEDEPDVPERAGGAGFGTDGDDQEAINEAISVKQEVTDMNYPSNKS
Kind of experiment: Activation of human N-terminal hexa-histidine tagged SIRT1 expressed in Escherichia coli BL21 (DE3) using peptide substrate by fluorescence polarization assay relative to control. As to conditions: filed as activator. Background: Polarisation of emitted light reports the rotation of a fluorescent probe.

Experiment [2] concerns the target T1, NAD-dependent protein deacetylase sirtuin-1 (Homo sapiens). The experiment is described as follows: Activation of human N-terminal hexa-histidine tagged SIRT1 expressed in Escherichia coli BL21 (DE3) using peptide substrate by fluorescence polarization assay. Particulars: filed as activator.
Experiment [3] can be described thus: Activation of human G6PD canton (R459L) mutant assessed as restoration of activity using G6P as substrate incubated for 3 hrs d by substrate addition and mesured after 2.5 mins by diaphorase-coupled enzyme assay.
The next experiment is filed under the species Homo sapiens. Kind of experiment: Activation of human G6PD canton (R459L) mutant assessed as restoration of activity using G6P as substrate incubated for 3 hrs d by substrate addition and mesured after 2.5 mins by diaphorase-coupled enzyme assay relative to wild type G6PD activity percentage.
For experiment [4], the target named is T2, Serine/threonine-protein kinase ULK1 (Homo sapiens) (UniProt O75385).
T2 sequence (whole entry): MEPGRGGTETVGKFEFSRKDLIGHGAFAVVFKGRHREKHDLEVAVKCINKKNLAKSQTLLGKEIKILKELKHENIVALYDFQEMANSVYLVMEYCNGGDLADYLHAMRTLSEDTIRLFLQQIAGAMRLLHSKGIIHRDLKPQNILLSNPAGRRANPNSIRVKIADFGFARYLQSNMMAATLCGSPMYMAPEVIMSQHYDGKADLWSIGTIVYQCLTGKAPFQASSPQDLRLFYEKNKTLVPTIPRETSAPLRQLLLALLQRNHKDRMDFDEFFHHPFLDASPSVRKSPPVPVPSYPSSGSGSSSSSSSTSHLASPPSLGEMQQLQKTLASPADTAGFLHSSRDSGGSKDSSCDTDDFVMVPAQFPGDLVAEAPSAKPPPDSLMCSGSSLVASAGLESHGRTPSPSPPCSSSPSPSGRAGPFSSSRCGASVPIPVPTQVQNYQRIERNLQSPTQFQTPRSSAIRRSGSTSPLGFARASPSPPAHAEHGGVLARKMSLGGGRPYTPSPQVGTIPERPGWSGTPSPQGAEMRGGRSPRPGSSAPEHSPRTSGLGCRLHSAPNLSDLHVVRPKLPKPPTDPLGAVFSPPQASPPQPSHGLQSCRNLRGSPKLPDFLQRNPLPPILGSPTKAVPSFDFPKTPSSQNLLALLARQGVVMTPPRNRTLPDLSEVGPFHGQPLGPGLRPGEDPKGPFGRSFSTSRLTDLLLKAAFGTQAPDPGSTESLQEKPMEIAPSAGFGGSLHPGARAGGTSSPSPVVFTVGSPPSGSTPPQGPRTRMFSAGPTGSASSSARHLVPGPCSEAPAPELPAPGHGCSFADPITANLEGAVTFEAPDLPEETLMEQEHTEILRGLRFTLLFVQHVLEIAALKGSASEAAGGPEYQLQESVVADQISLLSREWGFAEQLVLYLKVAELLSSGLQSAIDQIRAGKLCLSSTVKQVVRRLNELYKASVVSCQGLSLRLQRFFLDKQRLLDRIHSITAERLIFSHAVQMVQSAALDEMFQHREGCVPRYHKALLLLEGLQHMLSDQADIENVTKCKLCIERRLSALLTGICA
Kind of experiment: Agonist activity at ULK1 (unknown origin) expressed in HEK293T cells at 100 nM incubated for 60 mins by ADP-Glo luminescence assay relative to control. It counts as cell-based. As to conditions: filed as agonist. Background: ADP-Glo turns the ADP formed in a reaction into a luminescent signal.

The term Emax denotes the size of the effect at its maximum, as opposed to the concentration needed. In experiment [1], `Oc1ccc(/C=C/c2cc(O)cc(O)c2)cc1` displayed an Emax of 201%.
`O=C(Nc1ccccc1-c1cn2c(CN3CCNCC3)csc2n1)c1cnc2ccccc2n1`: the EC1.5 in experiment [2] came to 0.16 µM. Also, the Emax in experiment [1] was 781%.
In general, EC50 refers to the concentration needed to bring the measured effect to its halfway point. `c1ccc2c(CCNCCSSCCNCCc3c[nH]c4ccccc34)c[nH]c2c1`: the EC50 in experiment [3] amounted to 3 µM. For the same compound, the Activity in the experiment filed under Homo sapiens worked out at 30%.
`CC(C)CN(CC(=O)N1CCN(CC(OCc2ccc3ccccc3c2)c2ccc(Cl)cc2Cl)CC1)CC(C)C` (stereo unspecified): the Activity in experiment [4] was determined as 243%.
